{
  "source": "patent US20060110371A1",
  "about": "“Control of indoleamine 2,3 deoxygenase expression and activity” (INSTITUT PASTEUR, priority 2004, published 2006)",
  "key": {"[1]": {"system": "tumors expressing IDO", "settings": "mice with IDO-transfected tumors; cited from earlier work"}, "[2]": {"system": "IDO mRNA", "test": "IDO mRNA expression by quantitative RT-PCR in monocyte-derived DCs", "assay_type": "cell-based, human", "settings": "for effect on IDO mRNA levels induced by PGE2 or forskolin plus TNFα: inhibitor present during 48 hrs culture", "description": "Isolation and preparation of cells. Peripheral blood mononuclear cells (PBMCs), DCs and T cells were prepared as described. Briefly, buffy coats were obtained from normal donors (EFS, Rungis) and PBMCs were isolated by sedimentation over Ficoll-Hypaque (Pharmacia Biotech, Piscataway, N.J.). CD 14-enriched and CD-14-depleted fractions were prepared by the use of CD14 Miltenyi microbeads followed by magnetic cell sorting according to the manufacturers' instruction (Miltenyi Biotech, Auburn, Calif.). Immature DCs were prepared by the use of CD14+ fraction by culturing cells in the presence of GM-CSF (Berlix, Seattle, Wash.) and IL-4 (R&D Systems, Minneapolis, Minn.) for 7 days. GM-CSF (1000 U/ml) and IL-4 (500 U/ml) were added to the cultures on days 0, 2, and 4. To generate mature DCs, the cultures were transferred to fresh wells on days 6-7 and the indicated maturation stimulus was added for an additional 1-2 days. At days 6-7, >95% of the cells were CD13^−CD83^−HLA-r^lo DCs. After maturation, on days 8-9, 70-95% of the cells were of the mature […] phenotype. CD4+ and CD8+ T cells were purified from the CD14− fraction to >99% purity by positive selection with the MACS column purification system.\nQuantitative analysis of IDO mRNA expression. IDO mRNA detection by real-time PCR. Briefly, RNA was extracted by Tri-reagent (Sigma) and cDNA was synthesized from 1-2 μg RNA using oligo dT (Roche) and Superscript reverse transcriptase (Invitrogen) according to manufacturers' instructions. IDO specific mRNA is quantified relative to GAPDH or TBP (TATA box Binding Protein) using the following primers: IDO forward: 5′[…]-3′ (SEQ ID NO:1), IDO reverse: 5′-[…]-3′ (SEQ ID NO:2), GAPDH forward: 5′[…]-3′ (SEQ ID NO:3), GAPDH reverse: 5′-[…]-3′ (SEQ ID NO:4) TBP forward: 5′-[…]-3′ (SEQ ID NO: 5); TBP reverse: 5′-[…]-3′ (SEQ ID NO: 6),Primers for EP receptors are described in Kamphuis et al. Invest Ophthalmol Vis Sci. 42, 3209-3215 (2001). Quantitative RT-PCR was performed using the SYBR® Green JumpStart™ Taq ReadyMix™ (Sigma) according to manufacturer's instructions. The reactions were run on a PTC200 equipped with a Chromo4™ detector (MJ Research, Mass., USA). […] The ratio gene of interest/housekeeping genes was calculated according to the formula: ratio=2^−dCt (dCT=mean Ct gene−mean Ct housekeeping). […]\nBased on IDO's proposed role in immune tolerance, the present inventors evaluated the effect of different DC maturation stimuli on IDO expression. […] The present inventors first established assays to monitor IDO mRNA expression using realtime quantitative RT-PCR (qPCR), and Western blot. RNA was extracted from immature DCs (iDC) exposed to distinct maturation stimuli and IDO expression was quantified as described in the Materials and Methods."}, "[3]": {"target": "human prostanoid receptors", "settings": "four receptors (EP1-4) binding PGE2 with high affinity; cited from earlier work"}, "[4]": {"system": "EP2", "test": "EP2 mRNA expression in DCs by quantitative RT-PCR", "assay_type": "cell-based, human", "settings": "relative to TBP", "procedure": "(A) The present inventors monitored EP2 and EP4 mRNA expression in DCs exposed to TNFα, PGE2 or a combination of both stimuli. TBP was used as a reference for our qPCR studies as its expression levels matched that of the EP-Rs. White bars represent EP2 levels; black bars indicated EP4 expression. […] All were used at a concentration of 50 μM.\nBriefly, RNA was extracted by Tri-reagent (Sigma) and cDNA was synthesized from 1-2 μg RNA using oligo dT (Roche) and Superscript reverse transcriptase (Invitrogen) according to manufacturers' instructions. […] Quantitative RT-PCR was performed using the SYBR® Green JumpStart™ Taq ReadyMix™ (Sigma) according to manufacturer's instructions. The reactions were run on a PTC200 equipped with a Chromo4™ detector (MJ Research, Mass., USA). […] All the measures were performed in duplicates and validated when the difference in Ct between the 2 measures was less than 0.3. […] The ratio gene of interest/housekeeping genes was calculated according to the formula: ratio=2^−dCt (dCT=mean Ct gene−mean Ct housekeeping). GAPDH and TBP were used to normalize for IDO and EP-receptor mRNA expression, respectively."}, "[5]": {"system": "IDO", "test": "IDO enzymatic activity, kynurenine by colorimetric assay (Ehrlich's reagent), in monocyte-derived DCs", "assay_type": "cell-based, human", "description": "Determination of IDO enzymatic activity and Kynurenine assays. Tryptophan is catabolized by IDO to N-formylkynrenine, which is rapidly converted to kynurenine. Measurement of kynurenine levels is a surrogate marker for IDO activity.\nExcept where stated, cells were incubated for an additional 4 hours, followed by harvest of supernatant and quantitation of kynurenine by HPLC or using a colormetric assay.\nAlternatively, kynurenine concentrations in the culture supernatants were measured using a colormetric assay (i.e., spectrophotometrically). 50 μl of 30% trichloroacetic acid was added to 100 μl of the culture supernatant, vortexed, and then centrifuged at 10,000 rpm for 5 minutes. A 75 μl volume of the supernatant was added to 75 μl of Ehrlich's reagent (100 mg of […], 5 ml of glacial acetic acid) in a microtiter plate well (96-well format). Optical density was measured at 480 nm filter with a Multiskan MS (Labsystems) microplate reader. The values were referred to a standard curve of defined kynurenine concentrations ([…]).\nTo validate this approach, the present inventors established a standard curve for quantifying kynurenine and compared the experimental values obtained using the calorimetric assay with those from the HPLC analysis."}},
  "data": [
    {"compound": "Cn1cc(C[C@@H](N)C(=O)O)c2ccccc21", "note": "[1-MT, 1-Methyl-D-tryptophan]", "values": [
      {"measurement": "protective tumor immunity", "setting": "[1]", "value": "recovered the ability to establish protective immunity"}
    ]},
    {"compound": "O=S(=O)(NCCNC/C=C/c1ccc(Br)cc1)c1cccc2cnccc12", "note": "[H-89]", "values": [
      {"measurement": "effect on IDO mRNA levels induced by PGE2 or forskolin plus TNFα", "setting": "[2]", "value": "block IDO expression"}
    ]},
    {"compound": "CCCCC[C@H](O)/C=C/[C@H]1[C@H](O)CC(=O)[C@@H]1C/C=C\\CCCC(=O)O", "note": "[PGE2, prostaglandin E2]", "values": [
      {"measurement": "Kd", "setting": "[3]", "value": "low nM range"},
      {"measurement": "EP2 mRNA expression", "setting": "[4]", "value": "down-regulation of EP2"},
      {"measurement": "increase in transcription of IDO", "setting": "[2]; PGE2 treated DCs vs iDCs", "value": "50-200 fold"},
      {"measurement": "IDO activity (kynurenine, colorimetric), stimulus alone", "setting": "[5]; DCs treated with the stimulus alone", "value": "lacked measurable IDO activity"}
    ]},
    {"compound": "Nc1ncnc2c1ncn2C1CCCO1", "note": "(centres unmarked) [SQ22536]", "values": [
      {"measurement": "effect on IDO mRNA levels induced by PGE2 or forskolin plus TNFα", "setting": "[2]", "value": "block IDO expression"},
      {"measurement": "effect on IDO activity of PGE2/forskolin +/- TNFα matured DC", "setting": "[5]; inhibitor added during 48 hrs maturation", "value": "blocks IDO expression/activity"},
      {"measurement": "optimal inhibitor concentration against forskolin-induced IDO", "setting": "[5]; titrated", "value": 1, "unit": "mM"}
    ]},
    {"compound": "CCCC1([C@H](O)C/C=C/[C@H]2[C@H](O)CC(=O)[C@@H]2CCCCCCC(=O)OC)CCC1", "note": "[butaprost, Butaprost]", "values": [
      {"measurement": "IDO activity in the presence of TNFα (PGE2 replaced)", "setting": "[5]; iDCs treated in combination with TNFα, 48 hrs", "value": "resulted in the induction of IDO activity"}
    ]},
    {"compound": "TNFα", "values": [
      {"measurement": "IDO mRNA expression (in words)", "setting": "[2]; iDCs exposed to the stimulus", "value": "did not upregulate IDO expression"}
    ]}
  ]
}
